Assay results taken from patent US12655189B2, “DOTA binding chimeric antigen receptor for cellular therapy” (THE TRUSTEES OF THE UNIVERSITY OF PENNSYLVANIA, priority 2019, dated 2026).

Assays:
hC8.2.5 DOTA CAR T cells = experiment: IFNγ secretion (ELISA) in response to immobilized DOTA or Y-DOTA; assay type: cell-based, human; conditions: immobilized ligand
Protocol: FIGS. 3A-3H illustrate Anti-DOTA Universal Immune Receptor binding and redirected killing. […] DOTA-NHS or Y-DOTA-Sarcosine-Biotin were incubated at various concentrations in a 96-well plate and allowed to passively adhere overnight at 4° C. Plates were washed 2× with PBS and 50,000 immune receptor expressing T cells were added to each well. Plates were incubated at 37° C. and 5% CO2 for 16 hours. Supernatants were harvested and analyzed for IFNγ secretion using a standard IFNγ ELISA kit. […] The average number of DOTA's per antibody was determined using the difference in mass between labeled and unlabeled antibody; in this example there are ˜9.3 DOTAs per antibody.

antigen positive cells = experiment: Target-cell lysis with DOTA-conjugated targeting ligands: linker/metal tuning and blocking (FIGS. 3E, 6B, 9); assay type: cell-based; conditions: 6 nM DOTA-NHS blocking
Protocol: To investigate the ability of DOTA-linked antibodies to trigger effector function in CAR T cells, CAR T cells were incubated with varying amounts of the Her2-specific Herceptin-conjugated DOTA antibody for 16 hours (FIG. 3D). Following this incubation, the supernatant was collected and IFNγ production was measured.
Herceptin antibodies were conjugated to DOTA, various metal ions were chelated, and the ability of DOTA CAR T cells to kill their targets was evaluated.

CD20+ cells = experiment: Lysis of CD20+ cells by DOTA CAR; assay type: cell-based; conditions: SKOV3 cells as antigen negative control
[1] = test system: Ramos (CD20+/EGFR−) cells; experiment: Luciferase lysis assay, Ramos; assay type: cell-based; conditions: 16 hours, 2.5:1 E:T, average of 1 DOTA per antibody
Protocol: Cetuximab and Rituximab were conjugated to Bn-DOTA to create targeting ligands with an average of 1 DOTA molecule per antibody, confirmed by MALDI TOF. MDA468 (CD20-/EGFR+) cells and Ramos (CD20+/EGFR−) cells expressing fLuc were incubated for 16 hours with DOTA CAR T cells at a 2.5:1 E:T ratio and targeting ligands at a range of concentrations. Each condition was run in triplicate. Luminescence was measured after co-culture and used to calculate lysis.

untransduced SKOV3 cells = experiment: Cell uptake of radiolabeled probes, untransduced control cells; assay type: cell-based
Protocol: (§1) [^90Y]DOTA-Bn-NH2 and [^90Y]AABD (FIG. 14) were synthesized by incubating 0.6 mCi of Y-90 with DOTA-Bn-NH2 or AABD at 80° C. for 30 min. The radiochemical purity of [^90Y]DOTA-Bn-NH2 and [^90Y]AABD was >95% as analyzed by ITLC (instant thin-layer chromatography). Cell uptake studies were performed with SKOV3 cells transduced with the DOTA CAR, with untransduced SKOV3 cells as a control; excess Y-DOTA-Bn-NH2 (250 nM) was used as a blocking agent.
(§2) Rituxumab-Bn-DOTA-Y was radiolabeled with 1-125 using Pierce Pre-Coated Iodination Tubes. The radiochemical purity of [^125I]Rituximab-Bn-DOTA-Y was >99% based on ITLC (instant thin-layer chromatography). Cell uptake studies with [^125I]Rituximab-Bn-DOTA-Y were performed with SKOV3 cells that were transduced with the DOTA CAR, with untransduced SKOV3 cells as a control. […] This experiment confirmed that Y-DOTA labeled antibodies are capable of binding to cells that express the DOTA CAR, with minimal nonspecific binding.

[2] = test system: SKOV3 cells transduced with the DOTA CAR; experiment: Cell uptake of radiolabeled probes, DOTA CAR transduced cells; assay type: cell-based
Protocol: FIG. 19 is a histogram illustrating [[…]]DOTA-Bn-NH2 and [^90Y]AABD uptake in SKOV3 cells transduced with the DOTA CAR.
FIG. 20 is a graph illustrating [[…]]Rituximab-Bn-DOTA-Y uptake in SKOV3 cells transduced with the DOTA CAR. The cells bind to [^125I]Rituximab-Bn-DOTA-Y rapidly, with maximum uptake at 60 min.
as §1, §2

`O=C(O)CN1CCN(CC(=O)O)CCN(CC(=O)ON2C(=O)CCC2=O)CCN(CC(=O)O)CC1` [DOTA-NHS] was tested, and the “concentration at which the IFNγ effect was saturating” value (hC8.2.5 DOTA CAR T cells) was 100 µM, the “IFNγ production by hC8.2.5 DOTA CAR T cells” value (hC8.2.5 DOTA CAR T cells; 16 hours) was “low levels of IFNγ” and the “effect of free monomeric DOTA on lytic function of Herceptin-NHS-DOTA-Y-CAR T cells” value (antigen positive cells) was “blockade of lytic function”.

“Rituximab-Bn-DOTA-Y: Rituximab-Bn-DOTA with chelated yttrium” was tested, and the “lysis of CD20+ cells” value (CD20+ cells) was “capable of lysing CD20+ cells”.

For “Rituximab-Bn-DOTA: Rituximab conjugated to Bn-DOTA”, the “lysis of Ramos cells” value [1] was “able to specifically lyse their respective target cell lines” and the “lysis of CD20+ cells” value (CD20+ cells) was “specifically lysed”.

With “[^125I]Rituximab-Bn-DOTA-Y: Rituximab-Bn-DOTA-Y radiolabeled with I-125” the “cell uptake in untransduced cells” value (untransduced SKOV3 cells) was “minimal to no uptake”, the “time of maximum uptake” value [2] was 60 min and the cell uptake ([2]; at 60 min) was 65 % input/10^6 cells.
